Results on four molecules are retold here after patent publication US9682928B2 (NeuroPro Therapeutics, Inc., priority 2009, dated 2017).

“Also recorded” adds a separate entry of the source.

In data set [1] the test system is male Sprague Dawley rats. Kind of data set: Taxol-induced peripheral neuropathy (rat), mechanical allodynia (von Frey). Type of data set: in vivo. As to conditions: for Pain relief as measured by mechanical allodynia: rat, IP, Day 32, 75 mg/kg (NTP-2014, NTP-2026). From the text: In this study, an animal model of Taxol-induced sensory neuropathy was employed to evaluate the effects of the sponsor's test compounds, for response to tactile sensitivity using von Frey test of mechanical allodynia. […] Therefore, Taxol-induced mechanical allodynia was employed as the measured behavioral endpoint.
The test substance was homogenized and dispersed using a mortar and a pestle in 0.2% hydroxypropylmethylcellulose (HPMC) in physiological saline, which served as the vehicle. Test articles were administered intraperitoneally in dose volumes of 10 mL/kg body weight. Preparations were made freshly for each day of administration.
Prior to test article NTP-2024 and vehicle control group administration, rats were pretreated at 30 minutes and again at 10 minutes prior to test article administration with a general metabolic inhibitor, piperonyl butoxide (150 mg/kg i.p.) in DMSO, at a volume of 1 mL/kg.
The reference article, Gabapentin, was formulated in saline to a concentration of 100 mg/mL and delivered […] at a dose volume of 1 mL/kg body weight (for a dosing concentration of 100 mg/kg).
All animals were administered Taxol, 2 mg/kg, IP at a dose volume of 1 mL/kg, on Days 1, 3, 5 and 7.
On Day 32, all animals received a single intraperitoneal injection of test article or vehicle according to Tables 1 and 2. For group 1 (vehicle), rats were pre-treated with Piperonyl butoxide (150 mg/kg IP, dose volume of 1 mL/kg) at 30 minutes and again at 10 minutes prior to vehicle administration. Four animals in group 3 (NTP-2024) were also pre-treated with Piperonyl butoxide (150 mg/kg IP, dose volume of 1 mL/kg) at 30 minutes and again at 10 minutes prior to vehicle administration. Animals in Groups 2, 3, 4, & 5 were pre-treated with Saline (dose volume of 1 mL/kg, IP) at 30 minutes and again at 10 minutes prior to test article administration. With the exception of animals in group 2, the animals received an IP injection of vehicle or test article 30 min prior to mechanical allodynia testing. Animals were dosed at a volume of 10 mL/kg.
Animals in group 2, received an IP injection of Gabapentin 90 minutes prior to mechanical allodynia testing. Animals were dosed at a volume of 1 mL/kg.
All animals underwent von Frey testing for mechanical allodynia. On testing days, the animals were returned to the chambers and allowed approximately 15 minutes to explore their surroundings prior to testing. A series of filaments were applied to the left hind paw. A 2.0 g filament was first applied to the plantar surface, if the animal responded to the filament (by lifting its paw) then the next smaller filament was applied. […] This is repeated in an “Up down” method for four responses after the first initial change in response.
The original study design used thermal hyperalgesia as the main parameter for testing the ability of the test compounds to ameliorate the pain associated with the Taxol injection. The treatment inclusion was set at a 20% drop from baseline values as determined on Day 28. […] The study design was amended to use mechanical allodynia as the testing parameter. […] This changed the testing days from Day 28 to Day 31 for allodynia confirmation and Day 29 to Day 32 for testing the article efficacy. Additional animals were received to complete the group size designation. These animals were tested for mechanical allodynia only. The study was then further amended to remove the piperonyl butoxide as a pre-treatment for Group 3 (NTP-2024). […] Because this study was conducted in two portions, four (4) animals from Group 3 received the metabolic inhibitor and five (5) received Saline as a pre-treatment.
The group mean results were analyzed versus the vehicle control group using a two way ANOVA, followed by a Bonferroni post-hoc test. Individual groups were tested pre and post dose using a paired t-test.

The subject of data set [2] is Rat. The data set can be described thus: Exploratory Bennett neuropathic pain (rat), plus inhibitor. Type of data set: in vivo.
For data set [3], the system named is Mice. The data set can be described thus: 6 Hz (Mice). Type of data set: in vivo.
Data set [4] deals with T1, Na+K+Cl− co-transporter (Rattus norvegicus, UniProt E9PTX9).
T1 construct: endogenous in cells; host or cells: A7r5 cells
T1 sequence (E9PTX9 1-1203): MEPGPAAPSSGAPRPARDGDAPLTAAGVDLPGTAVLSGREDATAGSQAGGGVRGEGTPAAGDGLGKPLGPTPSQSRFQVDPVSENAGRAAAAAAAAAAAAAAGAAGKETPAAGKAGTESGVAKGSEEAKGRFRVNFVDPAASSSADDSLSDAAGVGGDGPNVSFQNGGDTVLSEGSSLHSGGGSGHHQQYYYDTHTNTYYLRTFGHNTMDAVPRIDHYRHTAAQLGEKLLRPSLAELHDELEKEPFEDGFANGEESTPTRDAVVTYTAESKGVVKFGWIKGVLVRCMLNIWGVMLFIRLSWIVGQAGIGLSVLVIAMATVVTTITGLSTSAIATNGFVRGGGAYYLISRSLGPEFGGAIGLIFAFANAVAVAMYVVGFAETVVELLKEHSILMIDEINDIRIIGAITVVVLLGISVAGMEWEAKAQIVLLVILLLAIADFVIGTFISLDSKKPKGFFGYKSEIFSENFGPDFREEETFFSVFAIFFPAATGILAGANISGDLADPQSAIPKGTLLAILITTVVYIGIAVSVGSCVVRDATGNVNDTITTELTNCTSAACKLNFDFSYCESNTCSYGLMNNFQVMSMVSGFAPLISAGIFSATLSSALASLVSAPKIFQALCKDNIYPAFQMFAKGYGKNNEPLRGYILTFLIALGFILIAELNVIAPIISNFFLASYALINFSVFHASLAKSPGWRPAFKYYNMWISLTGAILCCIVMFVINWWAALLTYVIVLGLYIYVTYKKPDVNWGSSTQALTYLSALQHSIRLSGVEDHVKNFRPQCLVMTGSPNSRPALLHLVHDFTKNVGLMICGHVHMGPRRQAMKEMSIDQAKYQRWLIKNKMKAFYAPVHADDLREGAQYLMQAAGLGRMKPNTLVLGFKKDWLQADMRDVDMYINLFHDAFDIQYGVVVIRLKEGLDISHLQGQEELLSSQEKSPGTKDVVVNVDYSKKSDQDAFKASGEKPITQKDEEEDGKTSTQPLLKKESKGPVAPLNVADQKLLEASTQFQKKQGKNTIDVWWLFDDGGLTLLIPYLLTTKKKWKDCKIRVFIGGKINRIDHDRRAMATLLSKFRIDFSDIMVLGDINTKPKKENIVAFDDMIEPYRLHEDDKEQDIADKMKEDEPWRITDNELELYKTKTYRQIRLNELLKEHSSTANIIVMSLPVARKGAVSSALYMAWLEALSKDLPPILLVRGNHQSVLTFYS
Kind of data set: Na+K+Cl− cotransporter assay, 86Rb uptake in A7r5 cells. The format is cell-based. As to conditions: 10 minutes at 37° C.; for inhibition at 10 µM: read-out: % Inhibition of Control Values; for remaining activity at 10 µM: read-out: % of Control Value. The procedure:
Na^+K^+Cl^− co-transporter activity was measured in vitro in A7r5 cells by measuring their uptake of ^86Rb (0.2 μCi) in 10 minutes at 37° C. as detected by scintillation counting. See Chassande, et al. (1988) “The Na^+/K^+/Cl^− Cotransport in C6 glioma cells. Properties and role in volume regulation.” Eur. J. Biochem. 171: 425433.

Consider `CCCCN(CCCC)c1cc(C(=O)O)cc(S(N)(=O)=O)c1Oc1ccccc1` [NTP-2014, 3-Aminosulfonyl-5-N,N-dibutylamino-4-phenoxybenzoic acid], for which, in data set [1] (75 mg/kg), the “Activity compared to GBP at 100 mg/kg” value is given as “mechanical allodynia-equal to if not better activity” and the “Pain relief as measured by mechanical allodynia” value was “significant improvement in allodynia; also recorded: significant treatment effect; also recorded: effective analgesic effects”. Also, the “Activity against tactile allodynia” value in data set [2] is “Significant effects against tactile allodynia”. Also, the “Toxicity in 6 Hz study” value in data set [3] (100 mg/kg) was “mg/kg. No toxicity”. Besides, in data set [3] (100 mg/kg, NTP-2014: all animals to 1 h, majority through 4 h, NTP-2026: 2 timepoints (2 hr, 4 hr)), the “Suppression / activity in 6 Hz” value is “Complete”. Besides, in data set [4], the inhibition at 10 µM was -4% and the remaining activity at 10 µM was determined as 104%.

Turning to `CCCCNc1cc(C(=O)O)cc(S(N)(=O)=O)c1Oc1ccccc1` [Bumetanide, reference compound], in data set [4], the inhibition at 10 µM is 76% and the remaining activity at 10 µM worked out at 24%.

With `CCCCNc1cc(C(=O)N(C)CCCN(C)C)cc(S(N)(=O)=O)c1Oc1ccccc1` [NTP-2026, N-(3-(Dimethylamino)propyl)-N-methyl 3-Aminosulfonyl-5-N-butylamino-4-phenoxybenzamide], the “Animals with complete reversal of allodynia” value in data set [1] (group of nine rats) is listed as “Three of the nine animals”. Besides, in data set [1] (75 mg/kg), the “Pain relief as measured by mechanical allodynia” value is “slight improvement; also recorded: Several animals demonstrated complete responses”. Moreover, the “Activity against tactile allodynia” value in data set [2] was “Very low doses tested, no significant”. The “Toxicity in 6 Hz study” value in data set [3] (100 mg/kg) is recorded as “No toxicity”.

Consider `CCCCNc1cc(C(=O)NN2CCOCC2)cc(S(N)(=O)=O)c1Oc1ccccc1` [NTP-2024, N-Morpholinyl 3-Aminosulfonyl-5-N-butylamino-4-phenoxybenzamide], for which the Mean allodynia score in data set [1] (metabolic inhibitor pre-treatment removed) was 8.04 g. Also, the Mean allodynia score in data set [1] (pre-treated with the metabolic inhibitor (PBx)) is recorded as 14.92 g. In addition, the “Activity against tactile allodynia” value in data set [2] is “Dose-related activity against tactile”. Moreover, in data set [3] (doses up to 200 mg/kg, no metabolic inhibitor coadministered), the “Activity in 6 Hz” value is given as “No activity at doses”. In data set [4] (10 μM), the “% Inhibition of Control Values” is 20% and the “% of Control Value” was 80.2%.

In general, inhibition refers to the change of the read-out against control, counted positive when it falls.
